The record followed here is patent US20100190794A1, “Herbicidally Active Composition” (BASF SE, priority 2007, published 2010).

Each structure is given as a SMILES string.

Consider `CN1C(=O)C(Cc2ccccc2)N(C)C(=O)C1=Cc1c(C#N)ccc(F)c1F` (stereo not shown) [Example 15, 2-[5-Benzyl-1,4-dimethyl-3,6-dioxopiperazin-2-ylidenemethyl]-3,4-difluoro-benzonitrile], for which the melting point (in general, the temperature of the solid-liquid transition) turned out to be 175 °C.
